Results taken from patent publication US12344610B2, “APOL1 inhibitors and methods of use” (Maze Therapeutics, Inc., priority 2022, dated 2025).
Like-named read-outs stand apart in the source and are kept apart here.

Assays:
Assay type in all cases: cell-based
[1] = tested on: HEK293 clonal cell line overexpressing APOL1 G1; assay: APOL1 G1 HEK293 cell rescue assay (Example B3); conditions: geometric mean of at least 2 runs, † = single run, ¥ = concentration at 50% rescue estimated (no sigmoidal curve)
Procedure, shortened: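 Rescue of cell death caused by APOL1 G1 overexpression was measured in a clonal HEK293 line. Compounds were tested in duplicate on one plate, and EC50s were geometric means across at least two runs on different days. Some values are estimated 50%-rescue concentrations where curve fitting failed.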

[2] = tested on: Trypanosoma brucei Lister 427 VSG221 with APOL1 G1 recombinant protein; assay: APOL1 G1 trypanosome cell rescue assay (Example B5); conditions: geometric mean of at least 2 assay runs, † = single assay run
Procedure, shortened: (§1)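 Recombinant APOL1 protein, dispensed from a 2 μg/mL stock, and 250 T. brucei per well were co-incubated with test compound (0.4% DMSO) for 20 h. Viability: CellTiter-Glo luminescence.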

[3] = tested on: Trypanosoma brucei Lister 427 VSG221 with APOL1 G2 recombinant protein; assay: APOL1 G2 trypanosome cell rescue assay (Example B5); conditions: geometric mean of at least 2 assay runs, † = single assay run
Procedure, shortened: as §1

[4] = HEK293 clonal line overexpressing APOL1 G1
[5] = Trypanosoma brucei, 20 h, read-out: APOL1 G1 Trypanosome Rescue EC50, Trypanosoma brucei Lister 427 VSG221 with APOL1 G1 recombinant protein, 20 hours, CellTiter-Glo
[6] = Trypanosoma brucei, 20 h, read-out: APOL1 G2 Trypanosome Rescue EC50, Trypanosoma brucei Lister 427 VSG221 with APOL1 G2 recombinant protein, 20 hours, CellTiter-Glo
[7] = Homo sapiens, HEK293, HEK293 clonal line overexpressing APOL1 G1
[8] = read-out: APOL1 G1 Trypanosome Rescue EC50, Trypanosoma brucei Lister 427 VSG221 with APOL1 G1 recombinant protein, 20 hours, CellTiter-Glo
[9] = read-out: APOL1 G2 Trypanosome Rescue EC50, Trypanosoma brucei Lister 427 VSG221 with APOL1 G2 recombinant protein, 20 hours, CellTiter-Glo

Compound | EC50 [1, 4] [nM] | EC50 [2, 5] [nM] | EC50 [3, 6] [nM] | EC50 [1, 7] [nM] | EC50 [2, 8] [nM] | EC50 [3, 9] [nM]
CC(COc1ccc2c(c1)CCC(=O)N2C)N1CCC2(CC1)C(=O)Nc1ccc(Cl)cc12 (single isomer, unassigned) [Compound 200] | 203 | 192 | 72.4 |  |  | 
CC(COc1ccc2c(c1)CCC(=O)N2C)N1CCC2(CC1)C(=O)Nc1ccc(C#N)cc12 (single isomer, unassigned) [Compound 203, (S) or (R)-1′-{1-[(1-methyl-2-oxo-1,2,3,4-tetrahydroquinolin-6-yl)oxy]propan-2-yl}-2-oxo-1,2-dihydrospiro[indole-3,4′-piperidine]-5-carbonitrile] | 457 | 583 | 227 |  |  | 
C[C@@H](COc1ccc(S(C)(=O)=O)c(C(F)F)c1)N1CCC2(CC1)C(=O)Nc1ccc(Cl)cc12 (single isomer, unassigned) [Compound 210] |  | 71.1 | 21.8 | 153 |  | 
C[C@@H](COc1ccc2c(cnn2C)c1)N1CCC2(CC1)C(=O)Nc1ccc(Cl)cc12 (single isomer, unassigned) [Compound 211] |  | 527 | 159 | 380 |  | 
C[C@@H](COc1ccc(S(C)(=O)=O)c(C(F)F)c1)N1CCC2(CC1)C(=O)Nc1ccc(C#N)cc12 (single isomer, unassigned) [Compound 212] |  | 103 | 32.1 | 192 |  | 
CS(=O)(=O)c1ccc(OCCN2CCC3(CC2)C(=O)Nc2ccc(Cl)cc23)cc1C(F)CF (single isomer, unassigned) [Compound 218, 5-chloro-1′-(2-{3-[(1S or 1R)-1,2-difluoroethyl]-4-methanesulfonylphenoxy}ethyl)-1,2-dihydrospiro[indole-3,4′-piperidin]-2-one] |  |  |  | 125 | 108 | 31.6
CS(=O)(=O)c1ccc(OCCN2CCC3(CC2)C(=O)Nc2ccc(Cl)cc23)cc1C(F)CF (single isomer, unassigned) [Compound 219, 5-chloro-1′-(2-{3-[(1R or 1S)-1,2-difluoroethyl]-4-methanesulfonylphenoxy}ethyl)-1,2-dihydrospiro[indole-3,4′-piperidin]-2-one] | 116 |  |  |  | 39 | 10.5
CS(=O)(=O)c1ccc(OCCN2CCC3(CC2)C(=O)Nc2ccc(C#N)cc23)cc1C(F)CF (single isomer, unassigned) [Compound 221, 1′-(2-{3-[(1S or 1R)-1,2-difluoroethyl]-4-methanesulfonyl-phenoxy}ethyl)-2-oxo-1,2-dihydrospiro [indole-3,4′-piperidine]-5-carbonitrile] | 217 | 129 | 29.5 |  |  | 
CC(COc1ccc(C2(S(C)(=O)=O)COC2)cc1)N1CCC2(CC1)C(=O)Nc1ccc(C#N)cc12 (single isomer, unassigned) [Compound 263, (S) or (R)-1′-{1-[4-(3-methanesulfonyloxetan-3-yl)phenoxy]propan-2-yl}-2-oxo-1,2-dihydrospiro[indole-3,4′-piperidine]-5-carbonitrile] | 462 | 320 | 95.3 |  |  | 
CN1C(=O)C2(CCN(CCOc3ccc(C4(S(C)(=O)=O)CC(O)C4)cc3)CC2)c2cc(C(F)F)ccc21 (single isomer, unassigned) [Compound 278, 5-(difluoromethyl)-1-methyl-1′-(2-{4-[(cis) or (trans)-3-hydroxy-1-methanesulfonylcyclobutyl]phenoxy}ethyl)-1,2-dihydrospiro[indole-3,4′-piperidin]-2-one] | 92.6 |  |  |  | 111 | 25.5
CS(=O)(=O)C1(c2ccc(OCCN3CCC4(CC3)C(=O)Nc3ccc(C(F)F)cc34)cc2)CC(O)C1 (single isomer, unassigned) [Compound 281, 5-(difluoromethyl)-1′-(2-{4-[(cis) or (trans)-3-hydroxy-1-methanesulfonylcyclobutyl]phenoxy}ethyl)-1,2-dihydrospiro[indole-3,4′-piperidin]-2-one] | 164 |  |  |  | 101 | 28.1
CC(O)c1ncc(OCCN2CCC3(CC2)C(=O)Nc2ccc(Cl)cc23)cn1 (single isomer, unassigned) [Compound 285, 5-chloro-1′-[2-({2-[(1S) or (1R)-1-hydroxyethyl]pyrimidin-5-yl}oxy)ethyl]-1,2-dihydrospiro[indole-3,4′-piperidin]-2-one] |  | 749 | 212 | 292 |  | 
CC(O)c1ncc(OCCN2CCC3(CC2)C(=O)Nc2ccc(Cl)cc23)cn1 (single isomer, unassigned) [Compound 286, 5-chloro-1′-[2-({2-[(1R) or (1S)-1-hydroxyethyl]pyrimidin-5-yl}oxy)ethyl]-1,2-dihydrospiro[indole-3,4′-piperidin]-2-one] | 272 |  |  |  | 629 | 175
CC(O)c1ncc(OCCN2CCC3(CC2)C(=O)Nc2ccc(C(F)F)cc23)cc1C(F)(F)F (single isomer, unassigned) [Compound 287, 5-(difluoromethyl)-1′-[2-({6-[(1S) or (1R)-1-hydroxyethyl]-5-(trifluoromethyl)pyridin-3-yl}oxy)ethyl]-1,2-dihydrospiro[indole-3,4′-piperidin]-2-one] |  | 50 | 13.9 | 85.8 |  | 
CC(O)c1ncc(OCCN2CCC3(CC2)C(=O)Nc2ccc(C(F)F)cc23)cc1C(F)(F)F (single isomer, unassigned) [Compound 288, 5-(difluoromethyl)-1′-[2-({6-[(1R) or (1S)-1-hydroxyethyl]-5-(trifluoromethyl)pyridin-3-yl}oxy)ethyl]-1,2-dihydrospiro[indole-3,4′-piperidin]-2-one] | 62.1 |  |  |  | 36.1 | 9.75
CC[C@]1(O)C[C@H](N2C(=O)CCc3cc(OCCN4CCC5(CC4)C(=O)Nc4ccc(Cl)cc45)cnc32)C1 (single isomer, unassigned) [Compound 290, 5-chloro-1′-[2-({7-oxo-8-[(trans)-3-ethyl-3-hydroxycyclobutyl]-5,6,7,8-tetrahydro-1,8-naphthyridin-3-yl}oxy)ethyl]-1,2-dihydrospiro[indole-3,4′-piperidin]-2-one] |  | 69.2 | 24 | 63.9 |  | 
CC(O)c1ncc(OCCN2CCC3(CC2)C(=O)Nc2ccc(Cl)cc23)cc1C(F)(F)F (single isomer, unassigned) [Compound 291, 5-chloro-1′-[2-({6-[(1R) or (1S)-1-hydroxyethyl]-5-(trifluoromethyl)pyridin-3-yl}oxy)ethyl]-1,2-dihydrospiro[indole-3,4′-piperidin]-2-one] | 104 |  |  |  | 79.7 | 26.5
CC(O)c1ncc(OCCN2CCC3(CC2)C(=O)Nc2ccc(Cl)cc23)cc1C(F)(F)F (single isomer, unassigned) [Compound 292, 5-chloro-1′-[2-({6-[(1S) or (1R)-1-hydroxyethyl]-5-(trifluoromethyl)pyridin-3-yl}oxy)ethyl]-1,2-dihydrospiro[indole-3,4′-piperidin]-2-one] | 51.5 |  |  |  | 39.6 | 10.8
O=C1CCc2cc(OCCN3CCC4(CC3)C(=O)Nc3ccc(Cl)cc34)cnc2N1[C@H]1C[C@@](O)(C2CC2)C1 (single isomer, unassigned) [Compound 297, 5-chloro-1′-[2-({7-oxo-8-[(trans)-3-cyclopropyl-3-hydroxycyclobutyl]-5,6,7,8-tetrahydro-1,8-naphthyridin-3-yl}oxy)ethyl]-1,2-dihydrospiro[indole-3,4′-piperidin]-2-one] |  | 85.4 | 31.5 | 119 |  | 
C[C@]1(O)C[C@H](N2C(=O)CCc3cc(OCCN4CCC5(CC4)C(=O)Nc4ccc(Cl)cc45)cnc32)C1 (single isomer, unassigned) [Compound 307, 5-chloro-1′-[2-({7-oxo-8-[(trans)-3-hydroxy-3-methylcyclobutyl]-5,6,7,8-tetrahydro-1,8-naphthyridin-3-yl}oxy)ethyl]-1,2-dihydrospiro[indole-3,4′-piperidin]-2-one] |  | 79.7 | 27.2 | 70 |  | 
CS(=O)(=O)c1ccc(OCCN2CCC3(CC2)C(=O)N(CCO)c2ccc(Cl)cc23)cc1 [Compound 18, 5-chloro-1-(2-hydroxyethyl)-1′-[2-(4-methanesulfonylphenoxy)ethyl]-1,2-dihydrospiro[indole-3,4′-piperidin]-2-one] |  | 1540 | 234 | 663 |  | 
